Experiments:
PC3 = assay: Growth inhibition IC50, parent line; type: cell-based; conditions: Homo sapiens, PC-3
Protocol: (§1) PrC cell lines resistant to Estramustine (ESM) were developed as the clinical use of this drug induces significant side effects and drug resistance. The procedure of Mohr was used as described in the Supplementary Information.
(§2) Supplementary Information
(§3) Development of drug resistant cell lines
(§4) Cells were seeded in 3 flasks. […]
(§5) parent cell line was calculated. […]
(§6) to the drug within 2–4 weeks.
(§7) Table S1: IC50 values for parent and Estramustine-resistant prostate cancer cell lines are also multidrug re-sistant to Camptothecin and Docetaxel. Drugs
(§8) Estramustine Camptothecin Docetaxel […]

DU145 = assay: Growth inhibition IC50, parent line; type: cell-based; conditions: Homo sapiens, DU-145
Protocol: as §1, §2, §3, §4, §5, §6, §7, §8

22RV1 = assay: Growth inhibition IC50, parent line; type: cell-based; conditions: Homo sapiens; 22RV1 parent line
Protocol: as §1, §2, §3, §4, §5, §6, §7, §8

[1] = test system: Estramustine-resistant DU145; assay: Growth inhibition IC50, Estramustine-resistant line; type: cell-based; conditions: Homo sapiens, DU-145
Protocol: as §1, §2, §3, §4, §5, §6, §7, §8

[2] = test system: Estramustine-resistant 22RV1; assay: as above; type: cell-based; conditions: Homo sapiens; 22RV1 Estramustine-resistant line
Protocol: as §1, §2, §3, §4, §5, §6, §7, §8

[3] = test system: Estramustine-resistant PC3; assay: as above; type: cell-based; conditions: Homo sapiens
Protocol: as §1, §2, §3, §4, §5, §6, §7, §8

PC3 tumors = assay: Xenograft anti-tumor efficacy; type: in vivo, athymic nu/nu mice; conditions: 5 mg/kg, tail vein, twice weekly for four weeks, n = 5
Protocol: As described above, a xenograft tumor model was established by injecting mice with PC3 cells. Tumor growth was monitored regularly, and mice were randomized into one of four groups (n = 5 per group) when their tumor volume reached approximately 140 mm^3 (approx. day 16 post-injection) so as to ensure the equal distribution of tumor burden among the groups. The mice were treated twice weekly for four weeks via tail vein injection as follows. Group 1 (Control) received vehicle only; Group 2 (free SN-38) received SN38 at a dose of 5 mg/kg; Group 3 (PDC 10 mg/kg) received PrC10-SN38 at a dose of 10 mg/kg; Group 4 (PDC 20 mg/kg) received PrC10-SN38 at a dose of 20 mg/kg. Tumor volume was measured regularly until day 44 from the initiation of treatment, after which all mice were euthanized via CO2 inhalation.

PrC cell lines = assay: Dose-response of PrC cell lines to ESM; type: cell-based; conditions: Homo sapiens; range over the PrC cell lines, Figure S2; read-out: IC50s for ESM
Protocol: as §1
ESM-resistant lines developed following more than 6 months of exposure to the drug.
as §2, §3
Cells were seeded in 3 flasks.
parent cell line was calculated.
as §6

| SMILES | IC50 (PC3) | IC50 (DU145) | IC50 (22RV1) | IC50 [1] | IC50 [2] | IC50 [3] | tumor growth (PC3 tumors) | IC50 (PrC cell lines) |
| --- | --- | --- | --- | --- | --- | --- | --- | --- |
| CC(=O)O[C@@]12CO[C@@H]1C[C@H](O)[C@@]1(C)C(=O)[C@H](O)C3=C(C)[C@@H](OC(=O)[C@H](O)[C@@H](NC(=O)OC(C)(C)C)c4ccccc4)C[C@@](O)([C@@H](OC(=O)c4ccccc4)[C@H]21)C3(C)C [Docetaxel] | 4 nM | 3 nM | 3 nM | 5 nM | 4 nM | 10 nM | – | – |
| CCc1c2c(nc3ccc(O)cc13)-c1cc3c(c(=O)n1C2)COC(=O)[C@]3(O)CC [free SN-38, SN-38] | – | – | – | – | – | – | did not inhibit tumor growth | – |
| C[C@]12CC[C@@H]3c4ccc(OC(=O)N(CCCl)CCCl)cc4CC[C@H]3[C@@H]1CC[C@@H]2O [Estramustine] | 10000 nM | 8000 nM | 8000 nM | 8000 nM | 30000 nM | 24000 nM | – | 1400 to 1750 nM |
| CC[C@@]1(O)C(=O)OCc2c1cc1n(c2=O)Cc2cc3ccccc3nc2-1 [Camptothecin] | 45 nM | 10 nM | 7 nM | 100 nM | 23 nM | 200 nM | – | – |

Source: paper PMC12298539, “Applying Unbiased, Functional Criteria Allows Selection of Novel Cyclic Peptides for Effective Targeted Drug Delivery to Malignant Prostate Cancer Cells” (Pharmaceutics, 2025)
